Measurements from the supplement of paper PMC9663587.

Columns and labels:
Assay in all cases: area over the GR curve, 72 h; higher = more effect;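 also: Dye Drop or Deep Dye Drop imaging of viable cells in 384-well plates (Hoechst nuclei, LIVE/DEAD dye), nine half-log doses, GR normalized to DMSO controls and time-zero plates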
[1] = tested on: HS578T
[2] = tested on: HCC1419
[3] = tested on: MCF7
[4] = tested on: BT549
[5] = tested on: CAMA1
[6] = tested on: HCC70
[7] = tested on: MDAMB330
[8] = tested on: SUM52PE
[9] = tested on: SUM190PT
[10] = tested on: MDAMB415
[11] = tested on: SKBR3
[12] = tested on: HCC38

SMILES | area over the GR curve [1] [GR] | area over the GR curve [2] [GR] | area over the GR curve [3] [GR] | area over the GR curve [4] [GR] | area over the GR curve [5] [GR] | area over the GR curve [6] [GR] | area over the GR curve [7] [GR] | area over the GR curve [8] [GR] | area over the GR curve [9] [GR] | area over the GR curve [10] [GR] | area over the GR curve [11] [GR] | area over the GR curve [12] [GR] | area over the GR curve ([1]; main component drawn) [GR] | area over the GR curve ([2]; main component drawn) [GR] | area over the GR curve ([3]; main component drawn) [GR] | area over the GR curve ([4]; main component drawn) [GR] | area over the GR curve ([5]; main component drawn) [GR] | area over the GR curve ([6]; main component drawn) [GR] | area over the GR curve ([11]; main component drawn) [GR] | area over the GR curve ([12]; main component drawn) [GR]
COc1ccc2c(c1)[C@]1(C[C@H]1c1ccc3c(/C=C/c4ccc(CN5C[C@@H](C)O[C@@H](C)C5)cc4)n[nH]c3c1)C(=O)N2 | 0.941 | 0.425 | 0.906 | 0.889 | 0.587 | 1.11 | 0.438 | 0.516 | 0.751 | 0.36 | 0.711 | 0.852 |  |  |  |  |  |  |  | 
COc1cccc(OCCCN)c1-c1cc(Nc2cnc(C#N)cn2)n[nH]1 | 1.3 | 0.413 | 0.794 | 1.4 | 0.483 | 1.64 | 0.718 | 0.425 | 0.598 | 0.0862 | 0.802 | 0.858 |  |  |  |  |  |  |  | 
CC(=O)Nc1cccc(-n2c(=O)n(C3CC3)c(=O)c3c(Nc4ccc(I)cc4F)n(C)c(=O)c(C)c32)c1 (max 1 µM) | 0.491 | 0.285 | 0.277 | 0.129 | 0.169 | 0.692 | 0.218 | 0.224 | 0.0746 | 0.174 | 0.182 | 0.207 |  |  |  |  |  |  |  | 
CCc1cnn2c(NCc3ccc[n+]([O-])c3)cc(N3CCCC[C@H]3CCO)nc12 (max 1 µM) | 0.616 | 0.443 | 0.644 | 0.591 | 0.606 | 0.803 | 0.101 | 0.491 | 0.654 | 0.55 | 0.835 | 0.62 |  |  |  |  |  |  |  | 
CC(=O)c1c(C)c2cnc(Nc3ccc(N4CCNCC4)cn3)nc2n(C2CCCC2)c1=O (max 3.162 µM) | 0.32 | 0.208 | 0.346 | -0.0495 | 0.353 | -0.0552 | 0.47 | 0.201 | 0.319 | 0.454 | 0.285 | 0.371 |  |  |  |  |  |  |  | 
CCc1cncnc1N1CCN(Cc2nc3ccc(C(F)(F)F)cc3[nH]2)CC1 (max 10 µM) | 0.0252 | 0.112 | 0.0548 | -0.0132 | 0.0582 | -0.077 | 0.0392 | 0.0787 | 0.0049 | 0.0085 | 0.0204 | -0.0304 |  |  |  |  |  |  |  | 
CCCCOc1c(C(=O)c2c(F)cc(C)cc2F)c[nH]c2nncc1-2 (max 10 µM) | 0.651 | 0.301 | 0.697 | 0.94 | 0.842 | 0.914 | 0.372 | 0.464 | 0.715 | 0.349 | 0.541 | 0.768 |  |  |  |  |  |  |  | 
CCN1CCN(Cc2ccc(Nc3ncc(F)c(-c4cc(F)c5nc(C)n(C(C)C)c5c4)n3)nc2)CC1 (max 10 µM) | 0.634 | 0.433 | 0.702 | 0.127 | 0.613 | 0.145 | 0.722 | 0.341 | 0.66 | 0.71 | 0.536 | 0.64 |  |  |  |  |  |  |  | 
CNc1nc(-c2ccc3c(N)n[nH]c3c2)cc(N2C[C@@H](C(=O)NC3CCCCC3)CC[C@H]2C)n1 (max 10 µM) | 0.157 | 0.245 | 0.256 | 0.0789 | -0.0192 | 0.288 | 0.498 | 0.124 | 0.292 | 0.295 | 0.318 | 0.0564 |  |  |  |  |  |  |  | 
CO[C@@H](C)Cn1c(=O)n(C)c2cnc3ccc(-c4cncc(C(C)(C)O)c4)cc3c21 (max 10 µM) | 0.688 | 0.979 | 0.834 | 0.765 | 0.972 | 0.8 | 1.31 | 0.75 | 1.16 | 0.922 | 0.824 | 0.664 |  |  |  |  |  |  |  | 
Cc1nn(C)c(COc2ccc(N3CCN(S(=O)(=O)N(C)C)CC3)cc2)c1-c1cccc2c(CCCOc3cccc4ccccc34)c(C(=O)O)n(CCN3CCOCC3)c12 (max 10 µM) | -0.0079 | 0.0402 | -0.0002 | 0.0083 | 0.0026 | 0.0018 | 0.0479 | 0.0586 | -0.063 | 0.0101 | 0.0389 | 0.0151 |  |  |  |  |  |  |  | 
CN(C)CC[C@H](CSc1ccccc1)Nc1ccc(S(=O)(=O)NC(=O)c2ccc(N3CCN(Cc4ccccc4-c4ccc(Cl)cc4)CC3)cc2)cc1[N+](=O)[O-] [ABT-737] (max 10 µM) | 0.026 | -0.0276 | 0.0119 | -0.0258 | 0.0008 | 0.0935 | 0.189 | 0.0757 | 0.492 | 0.0607 | -0.0209 | 0.296 |  |  |  |  |  |  |  | 
C=CCn1c(=O)c2cnc(Nc3ccc(N4CCN(C)CC4)cc3)nc2n1-c1cccc(C(C)(C)O)n1 [AZD1775] (max 10 µM) | 0.759 | 0.238 | 0.692 | 0.446 | 0.0364 | 1.15 | 0.655 | 0.158 | 0.615 | 0.28 | 0.528 | 0.961 |  |  |  |  |  |  |  | 
CNC(=O)c1cccc(-c2ccc3c(N4CCOC[C@@H]4C)nc(N4CCOC[C@@H]4C)nc3n2)c1 [AZD2014] (max 10 µM) | 0.504 | 0.942 | 0.854 | 0.491 | 0.873 | 0.778 | 1.38 | 0.682 | 0.844 | 0.762 | 0.87 | 0.418 |  |  |  |  |  |  |  | 
NC1(C(=O)N[C@@H](CCO)c2ccc(Cl)cc2)CCN(c2nc[nH]c3nccc2-3)CC1 [AZD5363] (max 10 µM) | 0.248 | 0.189 | 0.212 | 0.211 | 0.583 | 0.661 | 0.52 | 0.196 | 0.272 | 0.855 | 0.23 | 0.0939 |  |  |  |  |  |  |  | 
C[C@@H]1COCCN1c1cc(C2([S@](C)(=N)=O)CC2)nc(-c2cc[nH]c3nccc2-3)n1 [AZD6738] (max 10 µM) | 0.0772 | 0.0421 | 0.179 | 0.0821 | -0.0516 | 0.283 | 0.0364 | 0.0121 | 0.124 | 0.0148 | 0.335 | 0.247 |  |  |  |  |  |  |  | 
NC(=O)Nc1cc(-c2cccc(F)c2)sc1C(=O)N[C@H]1CCCNC1 [AZD7762] (max 10 µM) | 0.863 | 0.561 | 0.597 | 0.601 | 0.418 | 0.839 | 0.704 | 0.634 | 0.57 | 0.398 | 0.88 | 0.916 |  |  |  |  |  |  |  | 
Cc1nc(NC(=O)N2CCC[C@H]2C(N)=O)sc1-c1ccnc(C(C)(C)C(F)(F)F)c1 [Alpelisib/BYL719] (max 10 µM) | 0.0905 | 0.356 | 0.326 | 0.0322 | 0.0106 | 0.112 | 0.279 | 0.19 | -0.103 | 0.0453 | 0.379 | 0.0391 |  |  |  |  |  |  |  | 
CN(C)C/C=C/C(=O)Nc1ccc(O[C@@H]2CCC[C@@H](Nc3ncc(Cl)c(-c4c[nH]c5ccccc45)n3)C2)cc1 [BSJ-01-175] (max 10 µM) | 1.07 | 0.39 | 1.19 | 0.433 | 0.68 | 1.07 | 1.22 | 0.618 | 1.16 | 0.676 | 1.04 | 0.603 |  |  |  |  |  |  |  | 
CC(=O)c1c(C)c2cnc(Nc3ccc(N4CCN(CCOCCOCCOCCNC(=O)COc5cccc6c5C(=O)N(C5CCC(=O)NC5=O)C6=O)CC4)cn3)nc2n(C2CCCC2)c1=O (stereo not drawn) [BSJ-03-123] (max 10 µM) | 0.298 | 0.415 | 0.306 | 0.116 | 0.658 | 0.181 | 0.443 | 0.219 | 0.568 | 0.332 | 0.338 | 0.566 |  |  |  |  |  |  |  | 
CC(C)Nc1cc(-c2c[nH]c(C(=O)N[C@H](CO)c3cccc(Cl)c3)c2)c(Cl)cn1 [BVD523] (max 10 µM) | 0.316 | 0.0554 | 0.192 | 0.109 | 0.241 | 0.296 | 0.133 | 0.129 | 0.218 | 0.121 | 0.124 | 0.237 |  |  |  |  |  |  |  | 
Cc1c(N)nc([C@H](CC(N)=O)NC[C@H](N)C(N)=O)nc1C(=O)N[C@H](C(=O)N[C@H](C)[C@@H](O)[C@H](C)C(=O)N[C@H](C(=O)NCCc1nc(-c2nc(C(=O)NCCC[S+](C)C)cs2)cs1)[C@@H](C)O)[C@@H](OC1OC(CO)C(O)C(O)C1OC1OC(CO)C(O)C(OC(N)=O)C1O)c1cnc[nH]1 (stereo partly drawn) [Bleomycin] (max 10 µM) |  |  |  |  |  |  |  |  |  |  |  |  | 0.446 | 0.141 | 0.555 | 0.467 | 0.274 | 0.419 | 0.259 | 0.485
Nc1cc(C(F)(F)F)c(-c2cc(N3CCOCC3)nc(N3CCOCC3)n2)cn1 [Buparlisib/NVP-BKM120] (max 10 µM) | 0.376 | 0.45 | 0.503 | 0.248 | 0.353 | 0.435 | 0.442 | 0.338 | 0.253 | 0.35 | 0.585 | 0.254 |  |  |  |  |  |  |  | 
COc1cc([C@@H]2c3cc4c(cc3[C@@H](O[C@@H]3O[C@@H]5CO[C@@H](C)O[C@H]5[C@H](O)[C@H]3O)[C@H]3COC(=O)[C@H]23)OCO4)cc(OC)c1O [Etoposide] (max 10 µM) | 0.377 | 0.32 | 0.499 | 0.473 | 0.571 | 0.454 |  |  |  |  | 0.403 | 0.449 |  |  |  |  |  |  |  | 
CC[C@@]1(O)C(=O)OCc2c1cc1n(c2=O)Cc2cc3c(CN(C)C)c(O)ccc3nc2-1 [Topotecan] (max 10 µM) | 1.02 | 0.99 | 0.854 | 0.851 | 1.05 | 1.06 |  |  |  |  | 0.794 | 1.07 |  |  |  |  |  |  |  | 
